Holding throughout (type): in vivo
Data set [1] relates to adult, Pyrethroid-susceptible horn fly (Haematobia irritans). The data set can be described thus: Adult pyrethroid-susceptible horn fly, treated filter paper (Table III). Particulars: topical, 6 h, read-out: 6 Hour % Mortality. The protocol:
Test doses are expressed as μg of test substance per cm^2 of filter paper.
1) Prepare solutions of test compound in acetone such that 800 or 1000 μL contains the amount necessary to obtain the desired dose rate.
2) Pipette 800 or 1000 μL of test solution onto filter paper.
3) Filter papers are dried under a fume hood.
4) When dry, filter papers are placed in the petri dish tops. Dishes are generally held about 24 hours before test organism is added.
5) Two- to five-day-old horn flies (pyrethroid-susceptible or -resistant) which have had two or more blood meals are used in the assay. Flies are collected into a small vial from the holding cage. Vials are then chilled in a freezer for about 4 minutes to immobilize the flies. Immobilized flies are then distributed to petri dish bottoms, 12 to 25 flies per dish, then dishes are closed and inverted.
6) As soon as the flies become mobile (about 5 minutes), they are examined to detect any flies that are dead or injured. This number is subtracted from total number of flies in the dish.
7) Petri dishes are held at room temperature and examined at the desired time intervals which might be 10 minutes to 6 hours.
8) All dead flies are recorded at each examination time. A fly is considered dead if it cannot walk even though it may still be moving.
10) Percent mortality at any time period is calculated using the following formula: […]
Number of dead flies-number dead @5 min/Total number of flies-number dead
Percent mortality is then corrected for control mortality using Abbot's formula.

For data set [2], the system named is Bovicola spp. (biting louse). As to the kind of experiment: Activity against the adult biting louse (Table VI). The following applies: dose 2.0 μg/cm^2. The protocol:
This test is designed to evaluate the activity of test compounds against the biting louse. Test compounds are dissolved in 100% acetone to 300, 100 and 10 ppm. 100 μL of each of these dilutions is added to the bottom of a 20 mL glass scintillation vial with a pipettor. The vial is allowed to dry under a fume hood for 15 minutes. The bottom of the vial measures 4.909 cm^2. The amount of test compound applied by each dilution equals 6.1, 2.0 and 0.2 μg/cm^2, respectively. Included in all tests are two to three replications of untreated vials. Lice are collected from the host animal and are used within 4 hours. The lice are counted into the scintillation vials with a slightly damp paintbrush. Five adult lice are placed in each vial. These tests are done in replicates of two or three so that there are 10 to 15 lice per rate/compound. Mortality readings are taken at 2 and 4 hours after placing the lice in the vials. To read the test, the vial is placed under a magnifying glass. […] Percent mortality is then calculated for each treatment.

Data set [3] deals with Ctenocephalides felis (cat flea). The data set can be described thus: whole plant or invertebrate. Particulars: topical, 24 h, read-out: 24 Hour % Mortality. As to the method: (§1) This test is designed to evaluate the contact activity of test compounds against the adult cat flea. Test compounds are dissolved in 100% acetone to 300, 100, 10 and 1 ppm. 100 μL of each of these dilutions is added to the bottom of a 20 mL glass scintillation vial with a pipettor. The vial is allowed to dry under a fume hood for 15 minutes. The bottom of the vial measures 4.909 cm^2. The amount of test compound applied by each dilution equals 6.2, 2.0, 0.2 and 0.02 μg/cm^2, respectively. Newly emerged adult cat fleas are anesthetized with CO2 to immobilize, and are counted into the scintillation vials with forceps. Five fleas are placed in each vial. These tests are done in replicates of two or three so that there are 10 to 15 fleas per rate/compound. Mortality readings are taken 4 and 24 hours after placing the fleas in the vials. […] Percent mortality is then calculated for each treatment.
This test evaluates the synergistic effect of piperonyl butoxide on the formula I compounds of this invention. Piperonyl butoxide (PBO) is added in an amount of 1.5% to a 1,000 ppm solution of a test compound in acetone. Dilutions are then made with acetone to provide solutions containing 300, 100, 10 and 1 ppm of the test compound and 0.45%, 0.15%, 0.015% and 0.0015% piperonyl butoxide, respectively. Solutions containing 1,000, 300, 100, 10 and 1 ppm of the test compound alone are used as the control. […]

In data set [4] the test system is Dermacentor variabilis (American dog tick). As to the kind of experiment: Contact activity against the larval American dog tick (Table II). Particulars: topical. The protocol:
This test is designed to evaluate the contact activity of test compounds against the American dog tick. Test compounds are dissolved in 100% acetone to 1000, 300, 100, 10, 1 and 0.1 ppm. 100 μL of each of these dilutions is added to the bottom of a 20 mL glass scintillation vial with a pipettor. The vial is allowed to dry under a fume hood for 15 minutes. The vial is then turned in its side, and 250 μL of each dilution is applied to the sides of the vial. The vial is placed on a rolling machine and allowed to roll under the hood, coating the sides of the vial, until the acetone completely evaporates. The bottom of the vial measures 4.909 cm^2 and the sides measure 4.5 cm high×8.8 cm around, so that the total coated area of the scintillation vial measures 44.51 cm^2. The amount of test compound applied by each dilution equals 7.86, 2.36, 0.79, 0.079, 0.0079 and 0.00079 μg/cm^2, respectively. Unfed larval dog ticks are counted into the scintillation vials with a slightly damp paintbrush. Ten ticks are placed in each vial. These tests are done in replicates of two or three so that there are 20 to 30 ticks per rate/compound. Mortality readings are taken 4 and 24 hours after placing the ticks in the vials. To read the test, the vial is placed under a magnifying glass and tapped gently. […] Percent mortality is then calculated for each treatment.

The subject of data set [5] is Ctenocephalides felis (cat flea). As to the kind of experiment: Contact activity against the adult cat flea (Table I). Particulars: topical. The protocol:
as §1

The test system of data set [6] is Musca domestica (house fly). The data set can be described thus: Activity against the adult house fly (Table V). As to the method:
This test is designed to evaluate the activity of test compounds against the house fly. Test compounds are dissolved in 100% acetone to 1000, 300, 100, 10 and 1 ppm. 100 μL of each of these dilutions is added to the bottom of a 20 mL glass scintillation vial with a pipettor. The vial is allowed to dry under a fume hood for 15 minutes. The vial is then turned on its side, and 250 μL of each dilution is applied to the sides of the vial. The vial is placed on a rolling machine and allowed to roll under the hood, coating the sides of the vial, until the acetone completely evaporates. The bottom of the vial measures 4.909 cm^2 and the sides measure 4.5 cm high×8.8 cm around, so that the total coated area of the scintillation vial measures 44.51 cm^2. The amount of test compound applied by each dilution equals 7.86, 2.36, 0.79, 0.079, and 0.0079 μg/cm^2, respectively. Included in all tests are two to three replications of untreated vials. Adult house flies which are five to seven days old are chilled in a freezer for five minutes to immobilize, and are placed on a sorting platform which provides a steady stream of CO2 to keep the flies immobile. Five flies are counted into each scintillation vial with forceps. The top of the vial is plugged with a wad of sheet cotton sufficient to contain the flies. These tests are done in replicates of two to four so that there are 10 to 20 flies per rate/compound. Mortality readings are taken 1 and 4 hours after placing the flies in the vials. Flies which are unable to stand when disturbed are considered dead. Percent mortality is then calculated for each treatment.

The mark [7] stands for this setting: 4 hours, dose 0.079 μg/cm^2, read-out: 4 Hour % Mortality.
Setting [8] is: 4 hours, dose 0.790 μg/cm^2, read-out: 4 Hour % Mortality.
Where [9] appears, read: 4 hours, dose 2.360 μg/cm^2, read-out: 4 Hour % Mortality.
Where [10] appears, read: 4 hours, dose 7.860 μg/cm^2, read-out: 4 Hour % Mortality.
Where [11] appears, read: 24 hours, dose 0.079 μg/cm^2, read-out: 24 Hour % Mortality.
[12] abbreviates: 24 hours, dose 0.790 μg/cm^2, read-out: 24 Hour % Mortality.
[13] abbreviates: 24 hours, dose 2.360 μg/cm^2, read-out: 24 Hour % Mortality.
Where [14] appears, read: 24 hours, dose 7.860 μg/cm^2, read-out: 24 Hour % Mortality.
Setting [15] is: 4 h, read-out: 4 Hour % Mortality.
Where [16] appears, read: 24 h, read-out: 24 Hour % Mortality.
[17] abbreviates: 1 h, read-out: 1 Hour % Mortality.

Like-named read-outs stand apart in the source and are kept apart here.

For `F/C(=C\Cc1ccc(F)c(Oc2ccc(F)cc2)c1)C(c1ccc(Cl)cc1)C1CC1` (racemic) [Compound 18], in data set [1], the mortality at 0.625 µg/cm2 came out at 4%, the mortality at 1.25 µg/cm2 came out at 36%, the mortality at 2.5 µg/cm2 worked out at 94% and the mortality at 5 µg/cm2 stood at 99%. Also, in data set [1], the mortality at 10 µg/cm2 came to 100%.

Take `F/C(=C\Cc1ccc(F)c(Oc2ccccc2)c1)C(c1ccc(Cl)cc1)C1CC1` (stereo not drawn) [Compound 5, 1-[1-(p-Chlorophenyl)-2-fluoro-4-(4-fluoro-3-phenoxyphenyl)-2-butenyl]cyclopropane, (Z)-]: the “2 Hour % Mortality” value in data set [2] was found to be 92%. The mortality at 2 µg/cm2 in data set [3] stood at 100%; in data set [5] (setting [15]) it was 79%. The mortality at 6.2 µg/cm2 in data set [3] was found to be 100%; in data set [5] (4 hours, dose 6.20 μg/cm^2, read-out: 4 Hour % Mortality), 98%. Further, the mortality at 0.00079 µg/cm2 is 100% in data set [4] (4 hours, dose 0.00079 μg/cm^2, read-out: 4 Hour % Mortality) and 100% in data set [4] (24 hours, dose 0.00079 μg/cm^2, read-out: 24 Hour % Mortality). The mortality at 0.0079 µg/cm2 came to 100% in data set [4] (4 hours, dose 0.0079 μg/cm^2, read-out: 4 Hour % Mortality) and 100% in data set [4] (24 hours, dose 0.0079 μg/cm^2, read-out: 24 Hour % Mortality). For the same compound, the mortality at 0.079 µg/cm2 in data set [4] (setting [7]) and in data set [4] (setting [11]) was 100% each time. Moreover, the mortality at 0.79 µg/cm2 in data set [4] (setting [8]) and in data set [4] (setting [12]) was 100% in each case. The mortality at 2.36 µg/cm2 in data set [4] (setting [9]) and in data set [4] (setting [13]) was 100% each time. Besides, the mortality at 7.86 µg/cm2 in data set [4] (setting [10]) and in data set [4] (setting [14]) was 100% throughout. Besides, the mortality at 0.02 µg/cm2 in data set [5] (setting [15]) came to 34%; in data set [5] (setting [16]) it was 69%. The mortality at 0.2 µg/cm2 in data set [5] (setting [15]) stood at 39%; in data set [5] (setting [16]) it was 81%.

For `CCOc1ccc(C(/C(F)=C/Cc2ccc(F)c(Oc3ccccc3)c2)C2CC2)cc1` (stereo not drawn) [Compound 10, 1-[1-(p-Ethoxyphenyl)-2-fluoro-4-(4-fluoro-3-phenoxyphenyl)-2-butenyl]cyclopropane, (Z)-], the mortality at 0.079 µg/cm2 turned out to be 20% in data set [6] (setting [17]), 60% in data set [6] (setting [15]), 100% in data set [4] (setting [7]) and 100% in data set [4] (setting [11]). In addition, the mortality at 0.79 µg/cm2 in data set [6] (setting [17]) came to 20%; in data set [6] (setting [8]) it was 75%; in data set [4] (setting [8]), 100%; in data set [4] (setting [12]) it was 100%. The mortality at 2.36 µg/cm2 in data set [6] (setting [17]) is 40%; in data set [6] (setting [15]), 100%; in data set [4] (setting [9]), 100%; in data set [4] (setting [13]), 100%. Moreover, the mortality at 7.86 µg/cm2 in data set [4] (setting [10]) and in data set [4] (setting [14]) was 100% each time. Also, the mortality at 0.02 µg/cm2 in data set [5] (setting [15]) came to 10%; in data set [5] (setting [16]), 20%. Moreover, the figures for the mortality at 0.2 µg/cm2 in data set [5] (setting [15]) and in data set [5] (setting [16]) were 68% and 95%, respectively. For the same compound, the values for the mortality at 2 µg/cm2 in data set [5] (setting [15]) and in data set [5] (setting [16]) were 70% and 100%, respectively. The mortality at 6.2 µg/cm2 in data set [5] (setting [15]) and in data set [5] (setting [16]) was 100% in each case.

Values taken from US6235754A, “Methods and compositions for protecting animals and humans against attack and infestation by arthropod and helminth parasites” (American Cyanamid Company, priority 1999, dated 2001).
